Source: patent USRE46907E1, “Suppression of cancer growth and metastasis using nordihydroguaiaretic acid derivatives with metabolic modulators” (THE JOHNS HOPKINS UNIVERSITY, priority 2008, dated 2018)

Columns and labels:
PKCδ = assay: Western blotting of total PKCδ and phosphor-PKCδ (Thr505) in 4T1 cells; type: cell-based, mouse; settings: 4T1, 5 hrs; M4N 80 μM, Ro 5 μM, Ly 20 μM, Des 150 μM
Protocol: The sample volumes were adjusted by the total protein amount. Protein assay was performed by Bio-Rad Protein Assay (Bio-Rad Laboratories, Inc. Hercules, Calif.). The samples were resolved by the standard SDS-polyacrylamide gel electrophoresis and transferred to nitrocellulose membrane (Amersham Biosciences, Bjorkgatan, Sweden). The membranes were blocked with skim milk, and incubated with primary antibodies at 4° C. overnight and then with secondary antibody conjugated with horse radish peroxidase at room temperature for 2 hrs. The signals were detected by western blot chemiluminescence reagent plus (New England Nuclear Life Science Products, Boston, Mass.).

[1] = daily (1 mg/day) IV injection, nude mice carrying human tumor xenografts; cited from earlier work
[2] = test system: LNCaP human prostate cancer cells; assay: MTT cell growth assay in LNCaP cells; type: cell-based; settings: 24 hrs, M4N 80 μM, Ro 5 μM, Ly 20 μM
Protocol: (§1) Cell Culture Either cell line 4T1 or 67NR was a gift from Dr. Miller (20). The cells were cultured in RPMI1640 medium supplemented with glucose (14 mM), pyruvate (1 mM), penicillin (100 units/ml), streptomycin (100 μg/ml), and fetal bovine serum (10%), buffered with 25 mM HEPES (pH 7.4). LNCaP human prostate cancer cell line was purchased from American Type Culture Collection (Manassas, Va.). The cell line was cultured in RPMI1640 medium supplemented with glucose (14 mM), pyruvate (1 mM), penicillin (100 units/ml), streptomycin (100 μg/ml), and fetal bovine serum (10%). Drugs were dissolved in dimethyl sulfoxide (DMSO) at a suitable concentration so that the final concentration of DMSO in the medium was less than 0.1%.
MTT assay: Cells were incubated in PBS (−) supplemented with 5% fetal calf serum and 0.5 mg/ml MTT, 3-(4,5-Dimethylthiazol-2-yl)-2,5-diphenyltetrazolium bromide (Sigma, Saint Louis, Mo.) for 2 hrs. After the incubation, the cells were dissolved in dimethyl sulfoxide and the color of the solutions was measured by a spectrophotometer at wavelengths of 540 and 690 nm. The values correlated with viable cell numbers were obtained by subtracting the optical density at 690 nm from that, at 540 nm.

[3] = test system: PDK-1/Akt pathway-related proteins; assay: Western blotting of PDK-1/Akt pathway-related proteins in 67NR cells; type: cell-based, mouse; settings: 5 hrs after treatment
Protocol: (§2) Western blotting: After cells had been grown in […] flasks and treated with reagents, the cells were washed with PBS (−) three times and suspended in RIP A buffer (150 mM NaCl, 50 mM Tris-HCl (pH 8,0), 0.1% SDS, 1% NP40, and 0.5% deoxycholate) supplemented with protease inhibitor cocktail (Calbiochem, San Diego, Calif.). The sample volumes were adjusted by the total protein amount. Protein assay was performed by Bio-Rad Protein Assay (Bio-Rad Laboratories, Inc. Hercules, Calif.). The samples were resolved by the standard SDS-polyacrylamide gel electrophoresis and transferred to nitrocellulose membrane (Amersham Biosciences, Bjorkgatan, Sweden). The membranes were blocked with skim milk, and incubated with primary antibodies at 4° C. overnight and then with secondary antibody conjugated with horse radish peroxidase at room temperature for 2 hrs. The signals were detected by western blot chemiluminescence reagent plus (New England Nuclear Life Science Products, Boston, Mass.).

[4] = test system: PDK-1/Akt pathway-related proteins; assay: Western blotting of PDK-1/Akt pathway-related proteins in 4T1 cells; type: cell-based, mouse; settings: 4T1, 5 hrs after treatment
Protocol: as §2

[5] = test system: LNCaP human prostate cancer cells; type: cell-based; settings: 28 hrs, M4N 80 μM, Ro 5 μM, Ly 20 μM
Protocol: as §1
Apoptosis assay: Simple TLTNEL assay was conducted by using TUNEL apoptosis detection kit (Upstate, Temecula, Calif.) with some modification. For the evaluation of the effect of PKCδ wild type and dominant negative vectors on TUNEL-positive cell death, we first transfected 4T1 or 67NR cells with these vectors by effectene (Qiagen, Valencia, Calif.). Wild type PKCδ vector is constructed from wild type PKCδ gene and pEGFP (Promega, Madison, Wis.). Dominant negative PKCδ vector is constructed from PKCδ gene mutated at a 376th amino acid residue (threonine) and pEGFP (Promega, Madison, Wis.) This threonine residue is located in ATP-binding domain of protein kinase Cδ, and therefore essential for any kinase reaction of the protein so that this mutant protein supposedly function as dominant negative. As a control we used pEGFP-N3 vector was used. These vectors contain green fluorescent protein (GFP) gene to be used as a transfection marker. The vectors are kind gifts from Dr. Yuspa (National Institutes of Health, Bethesda, Md.) (88). Twenty four hours after transfection, the cells were treated with M4N, Rottlerin, or Ly294002. Then 24 hrs after this treatment with these reagents, the cells were fixed with 10% formaldehyde in phosphate buffered saline without calcium and magnesium (PBS (−)). The cells were then incubated with rabbit anti-GFP antibody (MBL International, Woburn, Mass.) followed by treatment with anti-rabbit IgG antibody conjugated with fluorescein (Promega, Madison, Wis.). TUNEL staining was conducted by using TUNEL apoptosis detection kit (Upstate, Temecula, Calif.) except for using Streptavidin-Alexa Fluor 568 (Molecular Probes, Eugene, Oreg.) instead of Avidine-Rhodamine contained in the kit. Cell death was evaluated by dividing the number of TUNEL-positive cells among the cells positive with anti-GFP staining by the number of these GFP-positive cells.

4T1 cells = assay: 4T1 tumor-bearing Balb/c mice (life-span, tumor size); type: in vivo, mouse; settings: 5×10^4 cells, M4N 1 mg/shot, Rottlerin 100 μg/shot, three days a week from day 7
Protocol: Animals: Female Balb/e mice were obtained from Charles River Laboratories (Wilmington, Mass.). M4N and Rottlerin were dissolved into a solvent, CPE (25/30) solvent system supplied by Erimos Pharmaceutical, L.L.C. (Raleigh, N.C.) and injected into mice either intravenously or intraperitoneally, T-cell deficient male nude mice (nu/nu) were obtained from Charles River Laboratories (Wilmington, Mass.). M4N and Ly294002 were dissolved into a solvent, CPE (25/30) solvent system supplied by Erimos Pharmaceutical, L.L.C. (Raleigh, N.C.) and injected into mice intravenously.
Tumor inoculation: Either 4T1 or 67NR cells were grown as described above. Cells growing subconfluently were collected and resuspended into the tissue culture medium minus fetal bovine serum and antibiotics, After counting the number of the cells, the cell concentration was adjusted. Twenty μl of the solution containing a selected number of cancer cells (either 5×10^3 or 5×10^4 cells) was injected into each fat pad of a pair of mammary glands located close to lower limbs. Tumor size was measured by weighing tumors extracted from mouse cadavers.

COc1ccc(C[C@@H](C)[C@@H](C)Cc2ccc(OC)c(OC)c2)cc1OC [M4N, tetra-O-methyl nordihydroguaiaretic acid]
amount of phosphorylated PKCδ at Thr505 (PKCδ): induced phosphorylation | M4N level accumulated in blood and tumors [1]: above 1 mM | cell growth (MTT) [2]: able to reduce cell growth almost as much as a combination treatment | total Akt expression [3]: not changed much | expression of phosphorylated PDK (Ser241), Akt (Ser473), PRAS40 (Thr246), Raf (Ser259), MEK (Ser217/221) ([3]; M4N 80 μM): significant reduction | total Akt expression [4]: not changed much | expression of phosphorylated PDK (Ser241), Akt (Ser473), PRAS40 (Thr246), Raf (Ser259), MEK (Ser217/221) ([4]; M4N 80 μM, Desferoxamine 75 or 150 μM): not much effect | TUNEL-positive cell death [5]: very small | life-span of 4T1-bearing mice (4T1 cells): didn't extend the life-span
